# Reference: paper PMC11997890, “In Vivo and In Vitro Pharmacokinetic Studies of a Dual Topoisomerase I/II Inhibitor” (ACS Pharmacology & Translational Science, 2025)
# Values joined by “and” are separate entries in the source; they are usually repeats but may differ in a detail not shown here. Identical values can stand only once. Like-named read-outs stand apart in the source and are kept apart here.
# Assays:
# [1] = In vivo elimination via urine and feces over 24 h; design: species or system Sprague–Dawley rats; conditions: for P8-D6 (plus glucuronide) exceeds metabolite in feces: 24 h cumulative
# Description: To investigate the elimination of P8-D6 and its phase I and phase II metabolites, urine and feces samples were collected over the course of 24 h and examined.
# To examine possible in vivo phase II metabolites, an enzymatic hydrolysis with glucuronidase/sulfatase from Helix pomatia was performed with both urine and feces samples. […] No sulfate phase II metabolites were observed.
# (§1) Effects of the diet were reduced by fasting the rats overnight prior to P8-D6 application. Blood samples were taken at 5, 15, 30, 60, 120, 180, 300, 360, and 600 min after i.v. application or 30, 60, 90, 120, 240, and 600 min after p.o. application. Immediately afterward, the plasma was collected by centrifugation at 2000 g for 10 min. The rats were housed in metabolic cages to collect the urine in specially attached containers. Urine and feces samples were collected every 2 h. The rats were euthanized by CO2 inhalation. The harvested organs (kidney, spleen, lung, liver, and colon) were weighed and submerged in liquid nitrogen. All collected samples were stored at −80 °C until analysis.
# Thirty mg of feces was added to 100 μL of a 0.15 M NaCl solution and stirred in the vortex for 30 s. Afterward, 200 μL of an ice-cold mixture of acetonitrile/methanol (2:1) was added before vortexing again for 30 s. Finally, the suspension was centrifuged at 15000 g for 5 min. 40 μL of the supernatant was injected into the HPLC. The samples from three mice per group were analyzed. Calibration/control samples were prepared the same way with fecal samples collected ahead of the in vivo study. For calibration, the matrix was spiked with a defined concentration of the analyte. Final concentrations ranged from 0 nmol/g to 200 nmol/g. Triple determinations were performed and prepared on each respective day. 50 μL of urine was mixed with 100 μL of an ice-cold mixture of acetonitrile/methanol (2:1) and stirred in the vortex for 5 min. The suspension was centrifuged at 15000 g for 5 min, and 40 μL of the supernatant was injected into the HPLC. Calibration/control samples were prepared the same way with urine samples collected ahead of the in vivo study. For calibration, the matrix was spiked with a defined concentration of the analyte. Final concentrations ranged from 0 to 10 μM. Triple determinations were performed and prepared on each respective day. LoD: 0.02 μM (urine), 0.22 nmol/g (feces); LoQ: 0.06 μM (urine), 0.72 nmol/g (feces). Additionally, to identify phase II metabolites, feces (30 mg) and urine (50 μL) from the in vivo study were incubated with arylsulfatase (at pH 6.2) and glucuronidase (at pH 4.5) from Helix pomatia in acetate buffer for 2 h in a 37 °C water bath. For reference, feces and urine without enzyme and 4-nitrophenylsulfate and 4-nitrophenylglucuronide were incubated as well. All experiments were performed in biological triplicates.
# [2] = In vivo plasma pharmacokinetics after i.v. and p.o. administration of P8-D6; design: species or system Sprague–Dawley rats; conditions: for AUC(0-t): read-out: AUC0–10 h (converted)
# Description: The plasma concentration–time profiles and pharmacokinetic parameters of P8-D6 after p.o. and i.v. administration are presented in Figure B and Table .
# Compartment models were used to calculate the pharmacokinetic parameters and plasma curves.
# Since a pure drug solution of P8-D6 was administered in this study, liberation (release from the dosage form) could be neglected; therefore, first-order kinetics were assumed. […] Based on our in vivo results and assumptions, P8-D6 is first homogeneously distributed in the central compartment after application before being transferred to the peripheral compartment. Elimination occurs via the central compartment. The substance transport into, out of, and between the different compartments is characterized by the macro rate constants.
# Starting with the i.v. administration, a two-compartment pharmacokinetic model was chosen that considers the biexponential decay of a fast initial first-order distribution and a slow terminal first-order elimination phase (supplied as Figure S4A,C). By this method, a fictitious initial P8-D6 plasma concentration c 0/i.v. of 4.43 μM at the time of injection was calculated (A (3.27 μM) + B (1.16 μM)). This fictitious plasma concentration corresponds to ∼1% (3.95 μmol in 8.8 mL of the theoretical plasma concentration and matches the plasma protein binding of P8-D6 of about 99% (Figure A). Based on the dose and c 0, a central V c of 0.891 L was calculated. Since the macro rate constant for distribution is considerably greater (37-fold) than the one for elimination, the elimination is the rate-determining step according to first-order kinetics.
# To cope with the overlapping curves of absorption and elimination after p.o. administration, compartmental models are used (supplied as Figure S4B,D). However, since only two to three data points exist (depending on the definitive start time of the elimination) during the elimination and distribution phase (120–600 min), no differentiation between these two phases can be described by our data (as shown by the residual method in Figure S4B). Therefore, a one-compartment model according to the Bateman function with both first-order invasion and elimination rates was assumed for the p.o. administration of P8-D6 (supplied as Figure S4D). […] A fictitious initial plasma concentration, c 0/p.o. = 2.21 μM, was calculated.
# as §1
# 50 μL of plasma was mixed with 100 μL of an ice-cold mixture of acetonitrile/methanol (2:1) and stirred in the vortex for 5 min. The suspension was centrifuged at 15000 g for 10 min, and 50 μL of the supernatant was injected into the HPLC (chapter Chromatographic Conditions). Calibration/control samples were prepared the same way with plasma samples collected from equal Sprague–Dawley rats from nonpharmacological studies. For calibration, the matrix was spiked with a defined concentration of the analyte. Final concentrations ranged from 0 μM to 5 μM. Triple determinations were performed and prepared on each respective day. LoD: 0.02 μM, LoQ: 0.05 μM (plasma).
# For data analysis and statistics, Microsoft Excel 2019 and GraphPad Prism (version 10.2, GraphPad Software Inc., San Diego, California), commercially available software, were used. All data are expressed either as mean ± SEM or ± SD. […]
# [3] = test system: NCI-60 human tumor cell lines; test: NCI-60 DTP Human Tumor Cell Lines Screening; type: cell-based; conditions: for GI50: Homo sapiens, NCI-60 panel
# [4] = male, Sprague-Dawley, rat, plasma, iv, 10 mg/kg, after i.v. administration of P8-D6 10 mg/kg BW, read-out: c max/i.v. of metabolite in plasma
# [5] = male, Sprague-Dawley, rat, plasma, po, 50 mg/kg, after p.o. administration of P8-D6 50 mg/kg BW, read-out: c max/p.o. of metabolite in plasma
smiles,measurement,setting,value
COc1cc(-c2cc3ccncc3c3nc(OCC[N+](C)(C)[O-])c4cnccc4c23)cc(OC)c1OC [P8-D6 N-oxide],P8-D6 (plus glucuronide) exceeds metabolite in feces,[1],31 fold
same,concentration in feces,[1]; after 2 h,2.90 nmol/g
same,detectable in feces up to,"[1]; rat, in vivo",up to 8 h
same,Cmax,[2]; [4],228 nM
same,Cmax,[2]; [5],54 nM
CNCCOc1nc2c3cnccc3cc(-c3cc(OC)c(OC)c(OC)c3)c2c2ccncc12 [P8-D6 mono],P8-D6 (plus glucuronide) exceeds metabolite in feces,[1],3.7 fold
same,Cmax,[2]; [4],114 nM
same,Cmax,[2]; [5],341 nM
same,GI50,[3],37 nM
"COc1cc(-c2cc3ccncc3c3nc(OCCN(C)C)c4cnccc4c23)cc(OC)c1OC [P8-D6, 6-(N,N-dimethyl-2-aminoethoxy)-11-(3,4,5-trimethoxyphenyl)-pyrido[3,4-c][1,9]-phenanthroline]",CLi.v.,[2]; i.v.,6.34 mL/min
same,apparent volume of distribution,[2]; i.v.,57.69 L/m^2
same,fictitious plasma concentration as share of theoretical plasma concentration,[2]; i.v.,~1%
same,macro rate constant for distribution greater than for elimination,[2]; i.v.,37 fold
same,c min,"[2]; i.v. 10 mg/kg BW, plasma, 10 mg/kg",0.35 µM and 0.35 ± 0.05 µM
same,CL,"[2]; i.v., total body surface of 0.0357 m^2",10.66 L/(h m^2)
same,Macro rate constant ß,"[2]; i.v., two-compartment model",0.002 min^–1
same,Macro rate constant α,"[2]; i.v., two-compartment model",0.073 min^–1
same,coefficient A,"[2]; i.v., two-compartment model",3.27 µM
same,coefficient B,"[2]; i.v., two-compartment model",1.16 µM
same,clearance,"[2]; male, Sprague-Dawley, rat, plasma, iv, 10 mg/kg body weight",6.33 mL/min
same,half-life,"[2]; male, Sprague-Dawley, rat, plasma, iv, 10 mg/kg body weight, i.v., read-out: Initial t 1/2",0.158 h
same,half-life,"[2]; male, Sprague-Dawley, rat, plasma, iv, 10 mg/kg body weight, i.v., read-out: Terminal t 1/2",5.78 h
same,Vd,"[2]; male, Sprague-Dawley, rat, plasma, iv, 10 mg/kg body weight, i.v., read-out: V d",2.06 L and 9.36 L/kg
same,Vd,"[2]; male, Sprague-Dawley, rat, plasma, iv, 10 mg/kg body weight, i.v., read-out: V ss",2.95 L and 13.4 L/kg
same,half-life,"[2]; male, Sprague-Dawley, rat, plasma, iv, 10 mg/kg body weight, i.v., read-out: plasma half-life t 1/2 (converted)",5.8 h
same,C0,"[2]; male, Sprague-Dawley, rat, plasma, iv, 10 mg/kg body weight, i.v., at the time of injection, two-compartment model, read-out: fictitious initial plasma concentration c 0/i.v.",4430 nM
same,Cmax,"[2]; male, Sprague-Dawley, rat, plasma, iv, 10 mg/kg, i.v. 10 mg/kg BW, plasma, read-out: c max",3950 ± 420 nM
same,Tmax,"[2]; male, Sprague-Dawley, rat, plasma, iv, 10 mg/kg, i.v. 10 mg/kg BW, read-out: t max",0 h
same,AUC(0-t),"[2]; male, Sprague-Dawley, rat, plasma, iv, i.v. 10 mg/kg BW",7.49 µM·h
same,bioavailability,"[2]; male, Sprague-Dawley, rat, plasma, iv, i.v. 10 mg/kg BW, read-out: Bioavailability",100%
same,bioavailability,"[2]; male, Sprague-Dawley, rat, plasma, oral, 50 mg/kg body weight, p.o. 50 mg/kg BW vs i.v. 10 mg/kg BW, read-out: Oral bioavailability",21.5%
same,half-life,"[2]; male, Sprague-Dawley, rat, plasma, po, 50 mg/kg body weight, p.o., read-out: Terminal t 1/2",8.64 h
same,half-life,"[2]; male, Sprague-Dawley, rat, plasma, po, 50 mg/kg body weight, p.o., read-out: plasma half-life t 1/2 (converted)",8.6 h
same,k el,"[2]; male, Sprague-Dawley, rat, plasma, po, 50 mg/kg body weight, p.o., one-compartment model, read-out: Macro rate constant k e",2.17e-05 s⁻¹
same,C0,"[2]; male, Sprague-Dawley, rat, plasma, po, 50 mg/kg body weight, p.o., one-compartment model, read-out: fictitious initial plasma concentration c 0/p.o.",2210 nM
same,Cmax,"[2]; male, Sprague-Dawley, rat, plasma, po, 50 mg/kg, p.o. 50 mg/kg BW, compartment model, read-out: c max (calculated)",1250 nM
same,Tmax,"[2]; male, Sprague-Dawley, rat, plasma, po, 50 mg/kg, p.o. 50 mg/kg BW, compartment model, read-out: t max (calculated) (converted)",1.77 h
same,Cmax,"[2]; male, Sprague-Dawley, rat, plasma, po, 50 mg/kg, p.o. 50 mg/kg BW, plasma, read-out: c max (measured)",1160 nM
same,Tmax,"[2]; male, Sprague-Dawley, rat, plasma, po, 50 mg/kg, p.o. 50 mg/kg BW, read-out: t max (measured) (converted)",2 h
same,AUC(0-t),"[2]; male, Sprague-Dawley, rat, plasma, po, p.o. 50 mg/kg BW",8.03 µM·h
same,CL,[2]; p.o.,0.24 L/h
same,CLp.o.,[2]; p.o.,3.96 mL/min
same,apparent volume of distribution,[2]; p.o.,82.92 L/m^2
same,c min,"[2]; p.o. 50 mg/kg BW, plasma, 50 mg/kg",0.59 µM and 0.59 ± 0.06 µM
same,Macro rate constant k a,"[2]; p.o., one-compartment model",0.031 min^–1
same,CL,"[2]; p.o., total body surface of 0.0357 m^2",6.65 L/(h m^2)
same,V ss,[2]; total body surface of 0.0357 m^2,82.69 L/m^2
same,GI50,[3],49 nM
COc1cc(-c2cc3ccncc3c3[nH]c(=O)c4cnccc4c23)cc(OC)c1OC [P8-DO],detection in urine and feces,[1]; 24 h,absent
same,detection in plasma,[2]; after administration of P8-D6,no P8-DO was detected
same,efficacy against cancer,[3]; NCI 60 Cell Screening,ineffective against cancer
